Measurements reported in patent publication US9458104B2 (priority 2012, dated 2016).

Legend:
RORγ = molecular target: T1, RORγ (UniProt P51449); type: cell-based; settings: 293T cells, 16 h; for pIC50 (FF): firefly (FF) luciferase; for pIC50 (REN): renilla normalised (RENnorm) luciferase
T1 construct: hRORg-LBD|aa259-518|NP_005051.2; hRORgt|aa1-497|NP_001001523 (RORg, t isoform, 497aa); mRORg-LBD|aa264-516|NP_035411
T1 sequence (P51449 1-518): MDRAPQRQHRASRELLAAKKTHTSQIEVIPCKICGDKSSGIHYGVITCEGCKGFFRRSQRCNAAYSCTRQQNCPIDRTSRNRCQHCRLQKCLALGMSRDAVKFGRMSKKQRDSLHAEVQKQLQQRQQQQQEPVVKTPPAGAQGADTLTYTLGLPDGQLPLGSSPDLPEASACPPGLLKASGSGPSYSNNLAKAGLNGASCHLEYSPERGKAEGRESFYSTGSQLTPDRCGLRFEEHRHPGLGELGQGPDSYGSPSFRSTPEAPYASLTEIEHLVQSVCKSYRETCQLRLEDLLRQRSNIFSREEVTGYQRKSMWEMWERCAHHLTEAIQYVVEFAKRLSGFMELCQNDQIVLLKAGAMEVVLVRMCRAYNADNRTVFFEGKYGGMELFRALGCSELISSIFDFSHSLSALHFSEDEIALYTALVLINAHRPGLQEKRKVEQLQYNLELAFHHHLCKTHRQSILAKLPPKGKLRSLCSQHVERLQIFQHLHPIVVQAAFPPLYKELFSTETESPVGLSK
Description: Determination of a ligand mediated Gal4 promoter driven transactivation to quantify ligand binding to RORγ was performed as follows: DNA encoding three different RORγ. protein fragments was cloned into vector pCMV-BD (Stratagene). Expression was under control of a CMV promoter and as fusion to the DNA-binding domain of the yeast protein GAL4. Other vectors used were pFR-Luc (Stratagene) as regulated reporter plasmid. pFR-Luc contains a synthetic promoter with five tandem repeats of the yeast GAL4 binding sites that control expression of the Photinus pyralis (American firefly) luciferase gene. In order to improve experimental accuracy the plasmid pRL-CMV was cotransfected. pRL-CMV contains the constitutive CMV promoter, controlling the expression of the Renilla reniformis luciferase.
All Gal4 reporter gene assays were done in 293T cells (DSMZ (German Collection of Microorganisms and Cell Cultures), Braunschweig, Germany, ACC635) grown in Minimum Essential Medium (MEM) with Phenol Red. The medium is supplemented with 10% fetal bovine serum, 0.1 mM nonessential amino acids, 1 mM sodium pyruvate, 1% Glutamax and 100 units Penicilin/[…] per mL at 37° C. in 5% CO2.
For the assay, […] were plated per well in 96 well plates in 100 μL per well, incubated over night at 37° C. in 5% CO2. The following day, medium was discarded and the cells were transiently transfected using 20 μL per well of a OptiMEM—PEI-based transfection-reagent (Sigma-Aldrich, 408727) including the three plasmids described above. About 4 h after addition of the transfection solution, fresh Minimal Essential Medium (MEM, same composition as used for plating cells, but without serum) was added. Then compound stocks, prediluted in MEM (same composition as used for plating cells) were added (final vehicle concentration not exceeding 0.1%).
All experiments were done at least in triplicates.
It is understood that the data illustrated below may have reasonable variation depending on the specific conditions and procedures used by the person conducting the test.

[1] = molecular target: T2, RORγ ligand binding domain (LBD) (Homo sapiens, UniProt P51449); test: TR-FRET Activity Assay (ligand sensing assay, RORγ-LBD / coactivator peptide interaction); type: biochemical
T2 construct: made in house; host or cells: E. coli BL-21 (BL3), vector pDEST15
T2 sequence (P51449 269-508 limits assumed): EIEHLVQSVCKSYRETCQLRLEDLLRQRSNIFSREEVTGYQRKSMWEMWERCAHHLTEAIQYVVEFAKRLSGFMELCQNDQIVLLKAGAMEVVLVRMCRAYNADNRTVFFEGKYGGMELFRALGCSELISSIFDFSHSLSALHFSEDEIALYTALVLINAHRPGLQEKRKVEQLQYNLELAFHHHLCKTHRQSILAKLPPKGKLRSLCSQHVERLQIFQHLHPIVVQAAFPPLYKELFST
Description: This method measures the ability of putative ligands to modulate the interaction between the purified bacterial expressed RORγ ligand binding domain (LBD) and synthetic N-terminally biotinylated peptides which are derived from nuclear receptor coactivator proteins such as but not limited to SRC1 (NcoA1), SRC2 (NcoA2, TIF2), SRC3 (NcoA3), PGC1α, PGC1β, CBP, GRIP1, TRAP220, RIP140.
The ligand-binding domain (LBD) of RORγ was expressed as fusion protein with GST in […] cells using the vector pDEST15. Cells were lysed by lysozyme-treatment and sonication, and the fusion proteins purified over glutathione sepharose (Pharmacia) according to the manufacturers instructions. For screening of compounds for their influence on the RORγ-peptide interaction, the LANCE technology (Perkin Elmer) was applied. This method relies on the binding dependent energy transfer from a donor to an acceptor fluorophor attached to the binding partner of interest. For ease of handling and reduction of background from compound fluorescence LANCE technology makes use of generic fluorophore labels and time resolved detection assays were done in a final volume of 25 μL in a 384 well plate, in a Tris-based buffer system (20 mM Tris-HCl pH6.8; 60 mM KCl, 1 mM DTT; 5 mM MgCl2; 35 ng/μL BSA), containing 20-60 ng/well recombinantly expressed RORγ-LBD fused to GST, 200-600 nM N-terminally biotinylated peptide, 200 ng/well Streptavidin-xIAPC conjugate (Prozyme) and 6-10 ng/well Eu W1024-antiGST (Perkin Elmer). DMSO content of the samples was kept at 1%.
After generation of the Tris-based buffer system, the potentially RORγ modulating ligands were diluted. […] The LANCE signal was detected by a Perkin Elmer EnVision™ Multilabel Counter. The results were visualized by plotting the ratio between the emitted light at 665 nm and 615 nm. […] Ligands that promote the complex formation induce a concentration-dependent increase in time-resolved fluorescent signal.
To assess the antagonistic potential of the compounds, IC50 values were determined using a Ligand Sensing Assay based on Time-resolved Fluorescence Energy Transfer (TR-FRET) as described above. The normalised TR-FRET assay values, using the following equation: 1000*665 nm measurement value/615 nm measurement value, were transferred to the program GraphPad Prism to generate graphs and dose response curves using the following equation: […]
This is identical to the “four parameter logistic equation”. The IC50 values are calculated using this equation. […] Is is understood that the data illustrated below may have reasonable variation depending on the specific conditions and procedures used by the person conducting the test.

Row | SMILES | pIC50 (FF) (RORγ) | pIC50 (REN) (RORγ) | IC50 [1] [nM]
1 | Cc1c(C(=O)NCCC(C)(C)C(=O)O)cn(-c2cc(C(C)(C)C)cc(C3(C)CC3)c2)c1CC1CCCCC1 [1/4] | 7.2 | 7.2 | 398
2 | Cc1c(C(=O)N[C@H]2C[C@H](C(=O)O)C2)cn(-c2cc(C(C)(C)C)cc(C3(C)CC3)c2)c1CC1CCCCC1 [1/5] | 7.6 | 8.0 | 1000
3 | Cc1c(C(=O)NC2CCOCC2)cn(-c2ccc(S(=O)(=O)NC(C)(C)C)c(C(C)(C)C)c2)c1CC1CCCCC1 [4/2] | 7.3 | 7.5 | 631
4 | Cc1c(C(=O)NC2CCOCC2)cn(-c2ccc(S(=O)(=O)NC(C)(C)C)c(C(F)(F)F)c2)c1CC1CCCCC1 [4/3] | 7.6 | 7.6 | 398
5 | Cn1c(C(=O)NC2CCOCC2)cc(-c2ccc(S(=O)(=O)NC(C)(C)C)c(C(C)(C)C)c2)c1CC1CCCCC1 [8/2] | 7.1 | 7.3 | 398
6 | Cn1c(C(=O)NC2CCOCC2)cc(-c2cc(C(C)(C)C)cc(C3(C)CC3)c2)c1CC1CCCCC1 [8/3] | 7.1 | 7.3 | 501
7 | Cn1c(C(=O)N[C@H]2C[C@H](C(=O)O)C2)cc(-c2ccc(S(=O)(=O)NC(C)(C)C)c3ccccc23)c1CC1CCCCC1 [8/4] | 7.7 | – | 1000
8 | Cn1c(C(=O)NCC2(O)CCS(=O)(=O)CC2)cc(-c2ccc(S(=O)(=O)NC(C)(C)C)c3ccccc23)c1CC1CCCCC1 [8/5] | 7.6 | 7.6 | 1000
9 | Cn1c(C(=O)NC2CCS(=O)(=O)CC2)cc(-c2ccc(S(=O)(=O)NC(C)(C)C)c3ccccc23)c1CC1CCCCC1 [8/6] | 7.8 | 7.9 | 501
10 | Cn1c(C(=O)NCC(C)(C)O)cc(-c2ccc(S(=O)(=O)NC(C)(C)C)c3ccccc23)c1CC1CCCCC1 [8/7] | 7.8 | 7.9 | 501
11 | Cn1c(C(=O)NC23CCC(C(=O)O)(CC2)CC3)cc(-c2ccc(S(=O)(=O)NC(C)(C)C)c3ccccc23)c1CC1CCCCC1 [8/8] | 8.4 | 8.4 | 2000
12 | Cn1c(C(=O)NCCC(C)(C)C(=O)O)cc(-c2cc(C(C)(C)C)cc(C3(C)CC3)c2)c1CC1CCCCC1 [8/10] | 7.4 | 7.5 | 794
13 | Cn1c(C(=O)N[C@H]2C[C@H](C(=O)O)C2)cc(-c2ccc(S(=O)(=O)NC(C)(C)C)c3ccccc23)c1C(=O)C1CCCCC1 [26/2] | 7.0 | 7.2 | –
14 | Cn1c(C(=O)NCC(C)(C)O)cc(-c2ccc(S(=O)(=O)NC(C)(C)C)c3ccccc23)c1C(=O)C1CCCCC1 [26/3] | 7.5 | 7.8 | –
15 | Cn1c(C(=O)NC2CCS(=O)(=O)CC2)cc(-c2ccc(S(=O)(=O)NC(C)(C)C)c3ccccc23)c1C(=O)C1CCCCC1 [26/4] | 7.7 | 7.8 | –
16 | Cn1c(C(=O)NCC(C)(C)O)cc(-c2cc(C(C)(C)C)cc(C3(C)CC3)c2)c1C(=O)C1CCCCC1 [Example 26/1] | 7.8 | 7.9 | –
17 | CC(C)(C)c1cc(-n2nc(C(=O)N[C@H]3C[C@H](C(=O)O)C3)cc2OC2CCCCC2)cc(C2(C)CC2)c1 [Example 110, trans-3-(1-(3-(tert-Butyl)-5-(1-methylcyclopropyl)phenyl)-5-(cyclohexyloxy)-1H-pyrazole-3-carboxamido)cyclobutanecarboxylic acid] | nt/6.5/6.5 | nt/6.5/6.5 | –
18 | CC(C)(C)c1cc(-n2nc(C(=O)N[C@H]3C[C@H](C(=O)O)C3)c(Cl)c2OC2CCCCC2)cc(C2(C)CC2)c1 [Example 111, trans-3-(1-(3-(tert-Butyl)-5-(1-methylcyclopropyl)phenyl)-4-chloro-5-(cyclohexyloxy)-1H-pyrazole-3-carboxamido)cyclobutanecarboxylic acid] | 7.3 | 7.5 | –
19 | CC(C)(C)c1cc(-n2nc(C(=O)NC3CCOCC3)c(Cl)c2OC2CCCCC2)cc(C2(C)CC2)c1 [Example 111/1] | nt/6.6/6.6 | nt/6.6/6.6 | –
20 | CC(C)(C)NS(=O)(=O)c1ccc(-c2c(Cl)c(C(=O)NC34CCC(C(=O)O)(CC3)CC4)nn2CC2CCCCC2)c(Cl)c1Cl [Example 113, 4-(5-(4-(N-(tert-Butyl)sulfamoyl)-2,3-dichlorophenyl)-4-chloro-1-(cyclohexylmethyl)-1H-pyrazole-3-carboxamido)bicyclo[2.2.2]octane-1-carboxylic acid] | 7.5 | 7.6 | –
21 | CC(C)(C)NS(=O)(=O)c1ccc(-n2nc(C(=O)N[C@H]3C[C@H](C(=O)O)C3)c(Cl)c2CC2CCCCC2)c2ccccc12 [Example 114, (trans)-3-(1-(4-(N-(tert-Butyl)sulfamoyl)naphthalen-1-yl)-4-chloro-5-(cyclohexyl-methyl)-1H-pyrazole-3-carboxamido)cyclobutanecarboxylic acid] | nt/6.8/6.8 | nt/6.8/6.8 | –
22 | CC(C)(C)NS(=O)(=O)c1ccc(-n2nc(C(=O)NC3CCS(=O)(=O)CC3)c(Cl)c2CC2CCCCC2)c2ccccc12 [Example 114/1] | 6.9 | 7.0 | –
23 | Cc1c(C(=O)NC2CCS(=O)(=O)CC2)nc(-c2ccc(S(=O)(=O)NC(C)(C)C)c3ccccc23)n1CC1CCCCC1 [Example 320, 2-(4-(N-(tert-Butyl)sulfamoyl)naphthalen-1-yl)-1-(cyclohexylmethyl)-N-(1,1-dioxidotetrahydro-2H-thiopyran-4-yl)-5-methyl-1H-imidazole-4-carboxamide] | 5.9 | 6.0 | –
